Laboratory results from patent US5705487A, “Antithrombotic agents” (priority 1995, dated 1998).
Where a name gives a salt, the structure may show the parent alone.

Tests used:
Format in all cases: biochemical
t-PA = molecular target: T1, t-PA (Homo sapiens, UniProt P00750); test: Kass, t-PA chromogenic substrate assay; conditions: substrate H-D-Ile-Pro-Arg-p-nitroanilide
T1 construct: purchased American Diagnostica, Greenwich, Conn
Description: (§3) By substantially following the procedures described above for human thrombin, and using other human blood coagulation system serine proteases and proteases of the fibrinolytic system with the appropriate chromogenic substrates, identified below, selectivity of the compounds of the present invention with respect to the coagulation factor serine proteases and with respect to the fibrinolytic system serine proteases are evaluated as well as their substantial lack of interference with serine proteases of the fibrinolytic system.
(§4) Human plasmin is purchased from Boehringer Mannheim, Indianapolis, Ind.; nt-PA is purchased as single chain activity reference from American Diagnostica, Greenwich, Conn.; modified-t-PA6 (mt-PA6) is prepared at Eli Lilly and Company by procedure known in the art (See, Burck, et al., J. Biol. Chem., 265, 5120-5177 (1990). Plasmin chromogenic substrate H-D-Val-Leu-Lys-p-nitroanilide and tissue plasminogen activator (t-PA) substrate H-D-Ile-Pro-Arg-p-nitroanilide are purchased from Kabi Vitrum, Stockholm, Sweden.

Human plasmin = molecular target: T2, Human plasmin (Homo sapiens, UniProt P00747); test: Kass, plasmin chromogenic substrate assay; conditions: substrate H-D-Val-Leu-Lys-p-nitroanilide
T2 construct: Human plasmin is purchased from Boehringer Mannheim; purchased Boehringer Mannheim, Indianapolis, Ind
T2 sequence (P00747 581-810 limits assumed): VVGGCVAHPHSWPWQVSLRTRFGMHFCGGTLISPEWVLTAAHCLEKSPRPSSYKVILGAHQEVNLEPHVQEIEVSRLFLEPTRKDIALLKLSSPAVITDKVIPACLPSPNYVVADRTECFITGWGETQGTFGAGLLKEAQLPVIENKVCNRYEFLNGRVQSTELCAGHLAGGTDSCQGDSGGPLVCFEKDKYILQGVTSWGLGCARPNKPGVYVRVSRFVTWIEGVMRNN
T2 sequence (P00747 97-580 partner limits assumed): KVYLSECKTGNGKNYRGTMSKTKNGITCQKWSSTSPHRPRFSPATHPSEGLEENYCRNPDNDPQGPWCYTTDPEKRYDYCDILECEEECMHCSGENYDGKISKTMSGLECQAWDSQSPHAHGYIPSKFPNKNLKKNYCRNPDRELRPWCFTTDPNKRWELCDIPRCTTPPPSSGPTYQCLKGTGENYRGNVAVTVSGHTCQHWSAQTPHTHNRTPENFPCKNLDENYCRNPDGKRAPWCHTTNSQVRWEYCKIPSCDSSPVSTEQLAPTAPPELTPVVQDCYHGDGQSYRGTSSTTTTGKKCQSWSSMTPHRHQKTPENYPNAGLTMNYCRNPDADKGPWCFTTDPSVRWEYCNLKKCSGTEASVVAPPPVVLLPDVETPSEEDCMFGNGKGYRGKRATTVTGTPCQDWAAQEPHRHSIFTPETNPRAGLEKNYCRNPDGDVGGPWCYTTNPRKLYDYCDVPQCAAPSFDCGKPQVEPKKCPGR
Description: as §3, §4

Human Thrombin = Human Thrombin (Homo sapiens, UniProt P00734); test: Inhibition of the amidase activity of thrombin (Kass); conditions: chromogenic substrate N-benzoyl-Phe-Val-Arg-p-nitroanilide; mean over range of concentrations
Description: The 150 μL of an aqueous solution of the chromogenic substrate (at 0.25 mg/mL) are added and the rates of hydrolysis of the substrate are measured by monitoring the reactions at 405 nm for the release of p-nitroaniline. Standard curves are constructed by plotting free thrombin concentration against hydrolysis rate. […] The amount of free inhibitor in each assay is calculated by subtracting the number of moles of bound thrombin from the number of moles of added inhibitor (test compound).
The Kass value is the hypothetical equilibrium constant for the reaction between thrombin and the test compound (I).
Kass is calculated for a range of concentrations of test compounds and the mean value is reported in units of liter per mole.

factor Xa = molecular target: T3, factor Xa (Homo sapiens, UniProt P00742); test: Kass, factor Xa chromogenic substrate assay; conditions: substrate N-Benzoyl-Ile-Glu-Gly-Arg-p-nitroanilide
T3 construct: Human factors X, Xa, IXa, XIa, and XIIa are purchased; purchased Enzyme Research Laboratories, South Bend, Ind
T3 sequence (P00742 235-488 limits assumed): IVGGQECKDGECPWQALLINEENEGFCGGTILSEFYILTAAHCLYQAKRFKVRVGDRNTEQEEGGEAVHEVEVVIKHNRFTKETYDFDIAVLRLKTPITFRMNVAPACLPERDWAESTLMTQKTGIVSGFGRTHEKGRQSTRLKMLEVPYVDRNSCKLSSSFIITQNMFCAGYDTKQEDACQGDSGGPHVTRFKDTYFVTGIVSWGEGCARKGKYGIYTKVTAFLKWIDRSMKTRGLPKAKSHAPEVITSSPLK
T3 sequence (P00742 41-179 partner limits assumed): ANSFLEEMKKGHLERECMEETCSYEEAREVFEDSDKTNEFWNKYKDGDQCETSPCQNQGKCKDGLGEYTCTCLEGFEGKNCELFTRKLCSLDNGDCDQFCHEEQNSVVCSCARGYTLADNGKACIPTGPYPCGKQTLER
Description: as §3
(§5) Chromogenic substrates: N-Benzoyl-Ile-Glu-Gly-Arg-p-nitroanilide (for factor Xa); N-Cbz-D-Arg-Gly-Arg-p-nitroanilide (for factor IXa assay as the factor Xa substrate); Pyroglutamyl-Pro-Arg-p-nitroanilide (for Factor XIa and for aPC); H-D-Pro-Phe-Arg-p-nitroanilide (for factor XIIa); and Pyroglutamyl-Gly-Arg-p-nitroanilide (for urokinase); are purchased from KabiVirum, Stockholm, Sweden, or from Midwest Biotech, Fishers, Ind. Bovine trypsin is purchased from Worthington Biochemicals, Freehold, N.J., and human plasma kallikrein from Kabi Vitrum, Stockholm, Sweden. […] N-Benzoyl-Phe-Val-Arg-p-nitroanilide, the substrate for human thrombin and for trypsin, is synthesized according to procedures described above for the compounds of the present invention, using known methods of peptide coupling from commercially available reactants or purchased from Midwest Biotech, Fishers, Ind.

Human Plasma [1] = test: Human plasma anticoagulation, thrombin time (TT); conditions: concentration required to double the clotting time
Description: (§1) Dog plasma and rat plasma is obtained from conscious mixed-breed hounds (either sex, Hazelton-LRE, Kalamazoo, Mich., U.S.A.) or from anesthetized male Sprague-Dawley rats (Harlan Sprague-Dawley, Inc., Indianapolis, Ind., U.S.A.) by venipuncture into 3.8 percent citrate. Fibrinogen is prepared from in-date ACD human blood as the fraction I-2 according to previous procedures and specifications. […] Human fibrinogen is also purchased as 98 percent pure/plasmin free from American Diagnostica, Greenwich, Conn. Coagulation reagents ACTIN, Thromboplastin, and Human plasma are from Baxter Healthcare Corp., Dade Division, Miami, Fla. Bovine thrombin from Parke-Davis ([…], Mich.) is used for coagulation assays in plasma.
(§2) Coagulation assay procedures are as previously described. […] A CoAScreener coagulation instrument (American LABor, Inc.) is used for all coagulation assay measurements. The prothrombin time (PT) is measured by adding 0.05 mL saline and 0.05 mL Thromboplastin-C reagent to 0.05 mL test plasma. The activated partial thromboplastin time (APTT) is measured by incubation of 0.05 mL test plasma with 0.05 mL Actin reagent for 120 seconds followed by 0.05 mL CaCl2 (0.02M). The thrombin time (TT) is measured by adding 0.05 mL saline and 0.05 mL thrombin (10 NIH units/mL) to 0.05 mL test plasma. The compounds of Formula I are added to human or animal plasma over a wide range of concentrations to determine prolongation effects on the APTT, PT, and TT assays. Linear extrapolations are performed to estimate the concentrations required to double the clotting time for each assay.

Human Plasma [2] = test: Human plasma anticoagulation, activated partial thromboplastin time (APTT); conditions: concentration required to double the clotting time
Description: as §1, §2

Human Plasma [3] = test: Human plasma anticoagulation, prothrombin time (PT); conditions: concentration required to double the clotting time
Description: as §1, §2

Bovine trypsin = molecular target: T4, Bovine trypsin (Bos taurus, UniProt P00760); test: Kass, trypsin chromogenic substrate assay; conditions: substrate N-Benzoyl-Phe-Val-Arg-p-nitroanilide
T4 construct: Bovine trypsin is purchased from Worthington Biochemicals; purchased Worthington Biochemicals, Freehold, N.J
T4 sequence (P00760 24-246): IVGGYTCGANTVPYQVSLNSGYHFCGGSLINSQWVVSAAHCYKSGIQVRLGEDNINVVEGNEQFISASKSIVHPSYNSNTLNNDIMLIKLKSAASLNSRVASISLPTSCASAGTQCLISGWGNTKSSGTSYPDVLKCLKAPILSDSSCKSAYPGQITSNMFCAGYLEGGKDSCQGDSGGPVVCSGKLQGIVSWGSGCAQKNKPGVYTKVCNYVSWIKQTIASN
Description: as §3, §5

T1 sequence (P00750 36-562): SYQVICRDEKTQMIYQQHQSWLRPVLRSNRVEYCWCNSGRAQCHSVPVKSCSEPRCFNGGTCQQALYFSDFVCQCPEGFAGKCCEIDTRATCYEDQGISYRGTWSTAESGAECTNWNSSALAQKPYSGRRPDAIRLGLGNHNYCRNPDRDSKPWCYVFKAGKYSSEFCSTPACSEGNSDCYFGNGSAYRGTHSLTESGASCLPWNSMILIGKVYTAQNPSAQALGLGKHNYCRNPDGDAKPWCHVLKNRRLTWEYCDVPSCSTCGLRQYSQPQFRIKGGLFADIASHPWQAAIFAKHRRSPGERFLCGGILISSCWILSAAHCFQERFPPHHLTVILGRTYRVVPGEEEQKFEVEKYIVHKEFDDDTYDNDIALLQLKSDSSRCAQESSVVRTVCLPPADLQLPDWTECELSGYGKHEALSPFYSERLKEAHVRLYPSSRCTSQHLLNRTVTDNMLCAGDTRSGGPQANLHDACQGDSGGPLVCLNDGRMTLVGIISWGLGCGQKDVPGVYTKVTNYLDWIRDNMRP

| Molecule | Kass × 10^6 (L/mole) t-PA (t-PA) | Kass × 10^6 (L/mole) Plasmin (Human plasmin) | Kass × 10^6 (L/mole) Human Thrombin (Human Thrombin) | Kass × 10^6 (L/mole) Xa (factor Xa) | Human Plasma Anticoagulation 2x Clotting time TT (Human Plasma [1]) | Human Plasma Anticoagulation 2x Clotting time APTT (Human Plasma [2]) | Human Plasma Anticoagulation 2x Clotting time PT (Human Plasma [3]) | Kass × 10^6 (L/mole) Trypsin (Bovine trypsin) |
| --- | --- | --- | --- | --- | --- | --- | --- | --- |
| N=C(N)NCc1ccc(CNC(=O)[C@@H]2CCCN2C(=O)[C@H](N)Cc2ccccc2)cc1 [Example 9, D-Phe-Pro-p-NHCH2 -C6 H4 CH2 NHC(NH)NH2.2TFA] | < 0.001 × 10^6 L/mole | – | – | – | – | – | – | – |
| CCS(=O)(=O)N[C@H](Cc1ccccc1)C(=O)N1CCC[C@H]1C(=O)NCc1cccc(C(=N)N)c1 [Example 24, EtSO2 -D-Phe-Pro-m-NHCH2 -C6 H4 C(=NH)NH2.HCl] | < 0.001 × 10^6 L/mole | < 0.001 × 10^6 L/mole | – | – | – | – | – | – |
| CCS(=O)(=O)N[C@H](Cc1ccccc1)C(=O)N1CCC[C@H]1C(=O)NCCc1cccc(N=C(N)N)c1.Cl [Example 37, EtSO2 -D-Phe-Pro-m-NHCH2 CH2 C6 H4 NHC(NH)NH2.HCl] | – | – | 0.02 × 10^6 L/mole | < 0.009 × 10^6 L/mole | > 9,000 ng/mL | > 9,000 ng/mL | > 9,000 ng/mL | – |
| N=C(N)Nc1ccc(CNC(=O)[C@@H]2CCCN2C(=O)[C@@H]2NCC[C@@H]3CCCC[C@@H]32)cc1 [Example 38, D-1-Piq-Pro-p-NHCH2 C6 H4 NHC(NH)NH2.2HCl] | – | < 0.001 × 10^6 L/mole | 1.1 × 10^6 L/mole | < 0.001 × 10^6 L/mole | 540 ng/mL | 6,100 ng/mL | 11,100 ng/mL | 0.07 × 10^6 L/mole |
| N=C(N)Nc1ccc(CCNC(=O)[C@@H]2CCCN2C(=O)[C@@H]2NCC[C@@H]3CCCC[C@@H]32)cc1 [Example 39, D-1-Piq-Pro-p-NHCH2 CH2 C6 H4 NHC (NH) NH2.2HCl] | – | < 0.001 × 10^6 L/mole | 0.12 × 10^6 L/mole | < 0.001 × 10^6 L/mole | 5,300 ng/mL | 69,200 ng/mL | 78,600 ng/mL | < 0.02 × 10^6 L/mole |
| N=C(N)Nc1cccc(CNC(=O)[C@@H]2CCCN2C(=O)[C@@H]2NCC[C@@H]3CCCC[C@@H]32)c1 [Example 40, D-1-Piq-Pro-m-NHCH2 C6 H4 NHC(NH)NH2.2HCl] | – | < 0.001 × 10^6 L/mole | 0.03 × 10^6 L/mole | < 0.001 × 10^6 L/mole | 35,100 ng/mL | > 91,000 ng/mL | > 91,000 ng/mL | 0.01 × 10^6 L/mole |
| N=C(N)Nc1cccc(CCNC(=O)[C@@H]2CCCN2C(=O)[C@@H]2NCC[C@@H]3CCCC[C@@H]32)c1 [Example 41, D-1-Piq-Pro-m-NHCH2 CH2 C6 H4 NHC(NH)NH2.2HCl] | – | < 0.001 × 10^6 L/mole | 0.01 × 10^6 L/mole | < 0.001 × 10^6 L/mole | 82,200 ng/mL | > 91,000 ng/mL | > 91,000 ng/mL | < 0.001 × 10^6 L/mole |
| O=C(O)CN[C@H](CC1CCCCC1)C(=O)N1CCC[C@H]1C(=O)NCC1CCNCC1 [Example 53, HO2 CCH2 -D-Cha-Pro-4-NHCH2 -piperidine.HCl] | < 0.001 × 10^6 L/mole | < 0.001 × 10^6 L/mole | – | – | – | – | – | – |
| Cl.Nc1ccc(CNC(=O)[C@@H]2CCCN2C(=O)[C@@H](CC2CCCCC2)NCC(=O)O)c(F)c1 [Example 64, HO2 CCH2 -D-Cha-Pro-4-NHCH2 -3-F-C6 H3 NH2.HCl] | – | – | 15 × 10^6 L/mole | 0.01 × 10^6 L/mole | 23 ng/mL | 900 ng/mL | 650 ng/mL | – |
| CCS(=O)(=O)N[C@H](CC1CCCCC1)C(=O)N1CCC[C@H]1C(=O)NCc1ccc(CN)cc1 [Example 81, EtSO2 -D-Cha-Pro-4-NHCH2 C6 H4 CH2 NH2.HCl] | – | – | 5.3 × 10^6 L/mole | – | 110 ng/mL | 1,500 ng/mL | 2,700 ng/mL | 2.1 × 10^6 L/mole |
| CCS(=O)(=O)N[C@H](CC1CCCCC1)C(=O)N1CCC[C@H]1C(=O)NCc1ccnc(N)c1.Cl [Example 83, EtSO2 -D-Cha-Pro-4-NHCH2 -2-aminopyridine.HCl] | – | – | 2.4 × 10^6 L/mole | – | 91 ng/mL | 1,000 ng/mL | 1,300 ng/mL | 0.03 × 10^6 L/mole |
| N=C(N)c1ccc(CNC(=O)[C@@H]2CCCN2C(=O)[C@@H](CC2CCCCC2)NCCCC(=O)O)cc1 [Example 85, HOOCCH2 CH2 CH2 -D-Cha-Pro-p-NHCH2 C6 H4 C(NH)NH2.HCl] | – | – | 265 × 10^6 L/mole | – | 4.9 ng/mL | 100 ng/mL | 197 ng/mL | 30.8 × 10^6 L/mole |
| N=C(N)c1ccc(CNC(=O)[C@@H]2CCCN2C(=O)[C@@H](CCC2CCCCC2)NCC(=O)O)cc1 [Example 88, HOOCCH2 -D-hCha-Pro-p-NHCH2 C6 H4 C(NH)NH2.HCl] | – | – | 410 × 10^6 L/mole | 3.9 × 10^6 L/mole | 4 ng/mL | 100 ng/mL | 200 ng/mL | – |
| Cl.N=C(N)c1ccc(CNC(=O)CN(CCc2ccccc2)C(=O)CNCC(=O)O)cc1 [Example 89, HOOCCH2 -Gly-N-C6 H5 CH2 CH2 Gly-p-NHCH2 C6 H4 C(NH)NH2.HCl] | – | – | 0.14 × 10^6 L/mole | 0.071 × 10^6 L/mole | 570 ng/mL | 51,000 ng/mL | 37,000 ng/mL | – |
| CCC(CC)C(=O)N[C@@H](CCS(C)(=O)=O)C(=O)N1CCC[C@H]1C(=O)NCc1ccc(C(=N)N)cc1 [Example 91, (C2 H5)2 CHCO-Met(O2)-Pro-p-NHCH2 C6 H4 C(NH)NH2.HCl] | – | – | 3.6 × 10^6 L/mole | 0.007 × 10^6 L/mole | 63 ng/mL | 3,000 ng/mL | 3,500 ng/mL | – |
| CS(=O)(=O)CC(=O)N[C@H](CC1CCCCC1)C(=O)N1CCC[C@H]1C(=O)NCc1ccc(C(=N)N)cc1 [Example 92, MeSO2 CH2 CO-D-Cha-Pro-P-NHCH2 C6 H4 C(NH)NH2.HCl] | – | – | 130 × 10^6 L/mole | – | 8.9 ng/mL | 210 ng/mL | 340 ng/mL | 7.7 × 10^6 L/mole |
| HOOCCH2 -D-Phe-Pro(4-cis-isoamyl)-p-NHCH2 C6 H4 C(NH)NH2.HCl [Example 50] | 0.04 × 10^6 L/mole | 1.8 × 10^6 L/mole | 40 × 10^6 L/mole | 4.3 × 10^6 L/mole | 35 ng/mL | 460 ng/mL | 420 ng/mL | – |
| HOOCCH2 -D-hPhe-Pro-p-NHCH2 C6 H4 C(NH)NH2.HCl [Example 87] | – | – | 30 × 10^6 L/mole | 2.5 × 10^6 L/mole | 9 ng/mL | 260 ng/mL | 310 ng/mL | – |
